The subject of this assay is SOS regulon gene fusions. In words: Stress response of SOS regulon luxCDABE gene fusions (nalidixic acid). As to conditions: for Nalidixic acid response ratio: 5 μg/ml, 110 minutes, LB, treated/untreated. It is filed as cell-based, E. coli. As to the method:
To test the stress responses, one or two single colonies of each selected strain were used to inoculate 5.0 ml of LB medium containing 150 μg/ml of ampicillin. These cultures were grown overnight at 37° C. then diluted by adding 50 μl or 100 μl of the overnight culture into 10.0 ml of fresh LB medium (without ampicillin) and grown with agitation at 37° C. until the culture was in exponential phase with readings on a Klett-Summerson colorimeter containing the red filter of between 10 and 40. These actively growing cultures were immediately used to initiate a stress response experiment by adding 50 μl of cultures to 50 μl of LB medium containing various concentrations of chemical in the wells a 96 well luminometer plate. This division of the actively growing culture at the time of chemical addition ensured identical populations were present when the stress was imposed. Light production was measured in a Dynex ML3000 luminometer at 37° C. The dimensionless units of light production, relative light units (RLU), are obtained by comparison with the light reading from an internal light-emitting diode. The cycle mode of the ML3000 luminometer, similar to previous descriptions (Van Dyk et al., Appl. Environ. Microbiol. 60:1414-120) was used.
The ability of these promoter-luxCDABE fusions to report activation of the SOS stress response was tested using nalidixic acid, a known, potent chemical inducer. The final concentrations of nalidixic acid were 1, 5, 25, and 125 μg/ml for all but strain DPD2293, which was tested at 80, 40, 20, 10, 5, 2.5, and 1.25 μg/ml.
Specificity of responses was tested by measuring the effect of ethanol on these SOS regulon gene fusions.

Take `CCn1cc(C(=O)O)c(=O)c2ccc(C)nc21` [Nalidixic acid, nalidixic acid]: the “Nalidixic acid response ratio” value by setting is: (dinF fusion, DPD2247 (lux-a.pk085.a5)) 2.2; (dinG fusion, DPD2248 (lux-a.pk0024.f5)) 2.0; (dinP fusion, DPD2249 (lux-a.pk055.a3)) 5.0; (recA fusion, DPD2250 (lux-a.pk022.d4)) 1.8; (recA fusion, DPD2251 (lux-a.pk085.b5)) 2.8; (ruvA fusion, DPD2293 (lux-a.pk058.f2)) 4.6. The “Nalidixic acid response ratio” value by setting is: (uvrA fusion, DPD2253 (lux-a.pk01.b6)) 1.4; (uvrD fusion, DPD2254 (lux-a.pk052.b6)) 1.2. The “bioluminescence compared with untreated culture” value (each of the eight SOS fusion strains, at least three concentrations (1-125 μg/ml; DPD2293 1.25-80 μg/ml)) was “increased bioluminescence”.

For the origin of these results see US20040009485A1, “Cellular arrays for the identification of altered gene expression” (priority 2002, published 2004).
